What was measured:
MGHU-1 cell line = experiment: Clonogenic cell survival assay, MGHU-1; assay type: cell-based, human; conditions: MGHU-1, clonogenic cell survival
Method: (§1) TAXOL (paclitaxel) is a powerful cytotoxic agent but is very difficult to use because it is almost insoluble in water or blood plasma. For in vivo or in vitro use, it is generally dissolved in dimethyl sulphoxide (DMSO) or in a complex commercial pharmaceutical preparation. […] The TAXOL (paclitaxel) concentration was varied over the range of 1 to 8nM. These carrier solutions were labeled “polymer” series. Similarly, the same range of TAXOL (paclitaxel) solution concentrations was prepared in neat dimethyl sulphoxide as solvent; these carrier solutions were labeled “DMSO” series. Finally, a series of commercially available pharmaceutical preparations was used, which contained TAXOL (paclitaxel) in the concentration range of 1 to 8 nM; these carrier solutions were labeled “commercial” series. […] The four series of solutions were compared for their cytotoxic action by a clonogenic cell survival assay using three human in vitro cell lines, viz., HELA (originally explanted from cancer of the cervix), HRT-18 (originally explanted from […]) and MGHU-1 (originally explanted from a bladder cancer).

HELA cell line = experiment: Clonogenic cell survival assay, HELA; assay type: cell-based, human
Method: as §1

HRT-18 cell line = experiment: Clonogenic cell survival assay, HRT-18; assay type: cell-based, human; conditions: HRT-18, clonogenic cell survival
Method: as §1

Method for cancer cells (Molt 4): Typically, for a porphyrin sensitizer, the concentration was determined by ultraviolet/visible measurement of absorption at the Soret wavelength near 420 nm.
The cell growth medium was prepared in three varieties. Each variety contained the nutrients required for cell growth. One variety contained neither sensitizer nor polymer, a second contained polymer but no sensitizer and a third contained both polymer and sensitizer.
The resulting solution was adjusted to pH 7.2 by careful addition of aqueous sodium hydroxide solution (5 M) and finally once more filtered through a 0.22 μm filter. The resulting solution was used as the growth medium containing both sensitizer and polymer in the following experiments. A growth medium containing only polymer was prepared as here but omitting the sensitizer, viz, instead of the sensitizer solution (85 mL), an equal volume of distilled water containing the same amount of polymer but no sensitizer was added. […]
For each growth medium, 10 mL of a suspension containing 10^7-10^8 cells/mL were centrifuged and the cells were resuspended in one of the growth media described above (45mL) to give three cell preparations: A, containing sensitizer plus polymer; B, containing neither sensitizer nor polymer; C, containing polymer but no sensitizer. […] Its amount could be determined by visible spectroscopy as described above. […]

| SMILES | cytotoxic action (in words) (MGHU-1 cell line) | cytotoxic action (in words) (HELA cell line) | cytotoxic action (in words) (HRT-18 cell line) | cell growth (cell count) (cancer cells (Molt 4)) |
| --- | --- | --- | --- | --- |
| COc1cc(NS(C)(=O)=O)ccc1Nc1c2ccccc2nc2ccccc12 [amsacrine] | effective | effective | effective |  |
| C1=Cc2nc1c(-c1ccccc1)c1ccc([nH]1)c(-c1ccccc1)c1nc(c(-c3ccccc3)c3ccc([nH]3)c2-c2ccccc2)C=C1 [sensitizer, 5,10,15,20 tetrakis phenyl porphyrin] |  |  |  | not inhibited |
